# According to patent US20110059043A1, “CHEMICAL COMPOUNDS” (priority 2009, published 2011):
# pIC50: −log10 of the molar value.
# Key:
# [1] = target: T1, Recombinant HCV polymerase (BK strain) (Hepatitis C virus genotype 1b, UniProt P26663); test: HCV polymerase enzyme assay (radiometric [33P]-UTP incorporation); type: biochemical, HCV 1b
# T1 construct: Recombinant HCV polymerase (BK strain) was expressed and purified from E. coli with a 21 amino acid C-terminal deletion; His6; made in house; host or cells: E. coli
# T1 sequence (P26663 2420-2989): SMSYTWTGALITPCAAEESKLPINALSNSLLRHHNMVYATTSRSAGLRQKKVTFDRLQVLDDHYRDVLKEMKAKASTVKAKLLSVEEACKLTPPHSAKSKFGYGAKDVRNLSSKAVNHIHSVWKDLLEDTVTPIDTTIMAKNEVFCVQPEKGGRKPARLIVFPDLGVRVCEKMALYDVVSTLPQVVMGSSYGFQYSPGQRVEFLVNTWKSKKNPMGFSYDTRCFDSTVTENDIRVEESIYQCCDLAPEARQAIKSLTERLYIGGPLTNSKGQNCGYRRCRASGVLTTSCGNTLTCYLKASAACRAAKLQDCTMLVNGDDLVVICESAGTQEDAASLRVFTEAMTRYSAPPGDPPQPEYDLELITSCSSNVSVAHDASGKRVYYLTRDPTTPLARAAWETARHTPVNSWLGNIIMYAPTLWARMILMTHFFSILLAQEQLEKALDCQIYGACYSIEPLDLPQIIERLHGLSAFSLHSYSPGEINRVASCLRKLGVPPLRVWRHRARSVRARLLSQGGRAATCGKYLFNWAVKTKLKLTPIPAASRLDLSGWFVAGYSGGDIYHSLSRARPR
# Experimental: Compounds were tested for inhibition of HCV polymerase using a radiometric [^33P]-UTP incorporation assay and a biotinylated U13:PolyA primer:template RNA substrate.
# Recombinant HCV polymerase (BK strain) was expressed and purified from E. coli with a 21 amino acid C-terminal deletion and a His6-tag. The general assay buffer consisted of 20 mM Tris (pH 7.5), 25 mM KCl, 5 mM MgCl2, 3 mM DTT, 0.5 mg/ml BSA, 0.01% Tween20. The standard reaction, in 96 well plates, contained 10 μl of diluted compound, 50 μl of substrate and 40 μl of enzyme. Compounds, supplied as 10 mM stocks in DMSO, were diluted initially in neat DMSO, and subsequently buffer was added to give a DMSO concentration of 30%; 10 μl of this was added to the assay plate to give a final concentration in the 100 μl assay of 3% DMSO. The biotinylated U13:PolyA RNA substrate was pre-annealed with 40 μM 5′-biotinylated U13 (Dharmacon) and 213 μg/ml PolyA (Amersham Biosciences) in water incubated at 70° C. for 5 minutes before being cooled on ice. Substrate (50 μl) was added in buffer to give a final concentration in the 100 μl assay of 125 nM biotinylated U13:0.63 μg/ml PolyA and 200 nM UTP with 0.4 μCi [^33P]-UTP per well (Perkin Elmer). The reaction was initiated by the addition of 40 μl of enzyme in buffer to give 100 nM final concentration. The reaction was incubated at 25° C. for 100 minutes and then stopped by addition of 100 μl of 100 mM EDTA. The samples were then transferred to 96 well Streptavidin-coated FlashPlates (Perkin Elmer) and incubated at room temperature for ˜1 hour to allow binding to occur. The plates were then washed three times with phosphate-buffered saline containing 0.05% Tween20 in an automated plate washer to remove unincorporated [^33P]-UTP, and then counted in a
# Each plate included a set of positive controls (no compound, maximum signal) and negative controls (no enzyme, minimum signal) and in each run at least one reference is compound was included to validate the assay. The IC50, concentration required to inhibit the enzyme activity by 50%, was calculated using an 8-point IC50 curve and fitted using the program XLfit (IDBS).
# [2] = tested on: HCV replicon cells Huh 9B; test: HCV replicon assay (luciferase); type: cell-based; conditions: Hepatitis C virus, reduction of replicon level by 50% vs untreated cell control, 72 h
# Experimental: (§1) HCV replicon cells Huh 9B (ReBlikon), containing the firefly luciferase—ubiquitin—neomycin phosphotransferase fusion protein and EMCV-IRES driven HCV polyprotein with cell culture adaptive mutations.
# (§2) Cells were cultured at 37° C. in a 5% CO2 environment and split twice a week on seeding at 2×10^6 cells/flask on day 1 and 1×10^6 3 days later. G418 at 0.5 mg/ml was added to the culture medium but not the assay medium. The culture medium consisted of DMEM with […] glucose and glutamax (Gibco 61965-026) supplemented with 1×non-essential amino acids (Invitrogen 11140-035), penicillin (100 IU/ml)/streptomycin (100 μg/ml) (Invitrogen 15140-122), FCS (10%, 50 ml) and […] (Invitrogen 10131-027) & 10% Australian foetal calf serum (Invitrogen 10099-141).
# (§3) A flask of cells was trypsinised and a cell count carried out. Cells were diluted to 100,000 cells/ml and 100 μl of this used to seed one opaque white 96-well plate (for the replicon assay) and one flat-bottomed clear plate (for the tox assay) for every five compounds to be tested for IC50. Wells G12 and H12 were left empty in the clear plate as the blank. Plates were then incubated at 37° C. in a 5% CO2 environment for 24 h.
# (§4) On the following day compound dilutions are made up in medium at twice their desired final concentration in a clear round bottomed plate. All dilutions have a final DMSO concentration of 1%.
# (§5) Once the dilution plate had been made up, controls and compounds were transferred to the assay plates (containing the cells) at 100 μl/well in duplicate wells. Exception: no compound was added to wells A1 and A2 of either plate and 100 μl of 1% DMSO was added to these instead. Plates were then incubated at 37° C. with 5% CO2 for 72 h.
# At the end of the incubation time, the cells in the white plate were harvested by washing in PBS (100 μL per well) and gently tapping dry before addition of […] of lysis buffer (25 mM tris-phosphate, 8 mM MgCl2, 1 mM DTT, 1% Triton X-100, 15% glycerol. pH to 7.8 using KH2PO4 prior to triton and glycerol addition. Substrate was prepared: 23.5 mM beetle luciferin (Promega E1603), 26 mM ATP (Sigma O-2060) in […] Tris buffer pH 7.8 aliquoted and stored at −80° C. was thawed and diluted 1:50 in luciferase assay buffer (20 mM Tricine (Sigma T-0377), 1.07 mM magnesium carbonate hydroxide (Sigma M-5671), 0.1 mM EDTA (Sigma E-5134), 2.67 mM MgSO4(BDH 101514Y), 33.3 mM dithiothreitol (Sigma 150460) pH 7.8).
# The M injector of the microplate luminometer (Lmax, Molecular Devices) was primed with 5×300 μl injections of the diluted substrate. After 5-60 min incubation in lysis buffer at room temperature, a plate was inserted into the luminometer and 100 μl luciferase assay reagent was added by the injector on the luminometer. The signal was measured using a 1 second delay followed by a 4 second measurement programme. The IC50, the concentration of the drug required for reducing the replicon level by 50% in relation to the untreated cell control value, can be calculated from the plot of the percentage reduction of the luciferase activity vs. drug concentration.
# [3] = tested on: HCV replicon cells Huh 9B; type: cell-based; conditions: concentration reducing total cell area by 50% relative to DMSO controls; 72 h
# Experimental: as §1, §2, §3, §4, §5
# The clear plate was stained with 100 μl 0.5% methylene blue in 50% ethanol at room temperature for lh, followed by solvation of the absorbed methylene blue in 100 μl per well of 1% lauroylsarcosine. Absorbance of the plate was measured on a microplate spectrophotometer (Molecular Devices) and the absorbance for each concentration of compound expressed as a proportion of the relative DMSO control. The TD50, the concentration of drug required to reduce the total cell area by 50% relative to the DMSO controls, can be calculated by plotting the absorbance at 620 nm minus background against drug concentration.
Structure (SMILES),pIC50 [1],pIC50 [2],Replicon Assay Value TD50 [3] [µM]
"COCCN(C)c1ncc(F)cc1C(=O)N[C@H]1N=C(c2c(Cl)cc(Cl)cc2Cl)c2ccccc2NC1=O [Example 67, (S)-5-Fluoro-2-((2-methoxyethyl)(methyl)amino)-N-(2-oxo-5-(2,4,6-trichlorophenyl)-2,3-dihydro-1H-benzo[e][1,4]diazepin-3-yl)nicotinamide]",7.44,7.95,13.07
"CN(C)CCCOc1ccc(Cl)cc1C(=O)NC1N=C(c2c(Cl)cc(Cl)cc2Cl)c2ccccc2NC1=O (stereo not drawn) [Example 12, 5-Chloro-2-(3-(dimethylamino)propoxy)-N-(2-oxo-5-(2,4,6-trichlorophenyl)-2,3-dihydro-1H-benzo[e][1,4]diazepin-3-yl)benzamide]",5.50,5.26,4.253
"CCC(=O)NCCOc1ccc(Cl)cc1C(=O)NC1N=C(c2c(Cl)cc(Cl)cc2Cl)c2ccccc2NC1=O (stereo not drawn) [Example 22, 5-Chloro-N-(2-oxo-5-(2,4,6-trichlorophenyl)-2,3-dihydro-1H-benzo[e][1,4]diazepin-3-yl)-2-(2-propionamidoethoxy)benzamide]",6.70,6.02,12.304
"COCCOc1ccc(F)cc1C(=O)N[C@@H]1N=C(c2c(Cl)cc(Cl)cc2Cl)c2ccccc2NC1=O [Example 62, (R)-5-Fluoro-2-(2-methoxyethoxy)-N-(2-oxo-5-(2,4,6-trichlorophenyl)-2,3-dihydro-1H-benzo[e][1,4]diazepin-3-yl)benzamide]",4.78,6.23,24.765
"CN(C)CCOCCOc1ccc(Cl)cc1C(=O)NC1N=C(c2c(Cl)cc(Cl)cc2Cl)c2ccccc2NC1=O (stereo not drawn) [Example 13, 5-Chloro-2-(2-(2-(dimethylamino)ethoxy)ethoxy)-N-(2-oxo-5-(2,4,6-trichlorophenyl)-2,3-dihydro-1H-benzo[e][1,4]diazepin-3-yl)benzamide]",5.77,5.50,6.754
"CS(=O)(=O)NCCOc1ccc(Cl)cc1C(=O)NC1N=C(c2c(Cl)cc(Cl)cc2Cl)c2ccccc2NC1=O (stereo not drawn) [Example 23, 5-Chloro-2-(2-(methylsulfonamido)ethoxy)-N-(2-oxo-5-(2,4,6-trichlorophenyl)-2,3-dihydro-1H-benzo[e][1,4]diazepin-3-yl)benzamide]",6.02,5.54,12.744
"COCCOCCOc1ccc(Cl)cc1C(=O)NC1N=C(c2c(Cl)cc(Cl)cc2Cl)c2ccccc2NC1=O (stereo not drawn) [Example 5, 5-Chloro-2-(2-(2-methoxyethoxy)ethoxy)-N-(2-oxo-5-(2,4,6-trichlorophenyl)-2,3-dihydro-1H-benzo[e][1,4]diazepin-3-yl)benzamide]",6.68,6.31,15.913
"COCCNc1ncc(F)cc1C(=O)NC1N=C(c2c(Cl)cc(Cl)cc2Cl)c2ccccc2NC1=O (stereo not drawn) [Example 42, 5-Fluoro-2-(2-methoxyethylamino)-N-(2-oxo-5-(2,4,6-trichlorophenyl)-2,3-dihydro-1H-benzo[e][1,4]diazepin-3-yl)nicotinamide]",6.01,5.58,17.784
"COCCOc1ccc(Cl)cc1C(=O)NC1N=C(c2c(Cl)cc(Cl)cc2CN2CCOCC2)c2ccccc2NC1=O (stereo not drawn) [Example 49, 5-Chloro-N-(5-(2,4-dichloro-6-(morpholinomethyl)phenyl)-2-oxo-2,3-dihydro-1H-benzo[e][1,4]diazepin-3-yl)-2-(2-methoxyethoxy)benzamide]",6.08,6.78,11.02
"COCCN(C)c1ncc(F)cc1C(=O)N[C@@H]1N=C(c2c(Cl)cc(Cl)cc2Cl)c2ccccc2NC1=O [Example 68, (R)-5-Fluoro-2-((2-methoxyethyl)(methyl)amino)-N-(2-oxo-5-(2,4,6-trichlorophenyl)-2,3-dihydro-1H-benzo[e][1,4]diazepin-3-yl)nicotinamide]",5.29,6.44,16.618
